Reference: patent US7605270B2, “Polymorphic forms of (S).-tetrahydrofuran-3-yl-3-(3-(3-methoxy-4-(oxazol-5-yl) phenyl) ureido) benzylcarbamate” (Vertex Pharmaceuticals Incorporated, priority 2005, dated 2009)
Structures can show the parent of a compound that is named as a salt.

Tests used:
IMPDH human type II = IMPDH human type II (Homo sapiens, UniProt P12268); details: general statement; disclosed in the Compound 1 patents; cited from earlier work
[1] = Hygroscopicity: water/weight uptake at 90% relative humidity; type: physicochemical; details: for water uptake (weight uptake): at 90% relative humidity (RH) at 25° C.; for hygroscopicity (in words): judged from uptake at 90% relative humidity
[2] = Maturation study of Form A1: slurry in solvent, excess solid analysed by XRPD; type: physicochemical; details: about 10 mg slurried in 500 μl solvent, shaken at 25-30° C. for 24 hrs
Description: X-ray powder diffraction patterns for the samples were acquired on a Bruker AXS/Siemens D5000 diffractometer using CuKα radiation (40 kV, 40 mA), ?-? goniometer, automatic divergence and receiving slits, a graphite secondary monochromator and a scintillation counter. The data were collected over an angular range of 2° to 42° 2? in continuous scan mode using a step size of 0.02° 2? and a step time of 1 second. Samples run under ambient conditions were prepared as flat plate specimens using powder as received without grinding. Approximately 25-50 mg of the sample was gently packed into 12 mm diameter, 0.5 mm deep cavities cut into polished, zero-background (510) silicon wafers (The Gem Dugout, 1652 Princeton Drive, Pennsylvania State College, PA 16803, USA). All specimens were run both stationary and rotated in their own plane during analysis. A further specimen was run using silicon powder as an internal standard to correct for any peak displacement. Samples run under non-ambient conditions were packed into a stainless steel cavity sample holder equipped with a Pt 100 thermocouple for temperature monitoring. Low temperature data were recorded using an Anton Paar TTK450 variable temperature camera attached to the Bruker AXS/Siemens D5000 diffractometer. […] The excess solid was removed by filtration and analysed by XRPD.

water uptake (weight uptake) [1] | hygroscopicity (in words) [1] | Structure (SMILES) | other results
 |  | COc1cc(NC(=O)Nc2cccc(CNC(=O)O[C@H]3CCOC3)c2)ccc1-c1cnco1 [Compound 1, (S)-tetrahydrofuran-3-yl 3-(3-(3-methoxy-4-(oxazol-5-yl)phenyl)ureido)benzylcarbamate] | IMPDH inhibition (in words) (IMPDH human type II): potent IMPDH inhibitor
less than 0.5% | non-hygroscopic | COc1cc(NC(=O)Nc2cccc(CNC(=O)O[C@H]3CCOC3)c2)ccc1-c1cnco1 [Form A1, (S)-tetrahydrofuran-3-yl 3-(3-(3-methoxy-4-(oxazol-5-yl)phenyl)ureido)benzylcarbamate] | XRPD patterns observed after maturation, all 31 solvents [2]: consistent with the pattern of Form A1
 |  | COc1cc(NC(=O)Nc2cccc(CNC(=O)O[C@H]3CCOC3)c2)ccc1-c1cnco1 [Form E5 HCl salt, (S)-tetrahydrofuran-3-yl 3-(3-(3-methoxy-4-(oxazol-5-yl)phenyl)ureido)benzylcarbamate, HCl salt] | uptake ([1]; at 90% relative humidity): 22 % w/w; hygroscopicity (in words) ([1]; HCl salt): highly hygroscopic
3% | moderately hygroscopic | COc1cc(NC(=O)Nc2cccc(CNC(=O)O[C@H]3CCOC3)c2)ccc1-c1cnco1 [Form C3, (S)-tetrahydrofuran-3-yl 3-(3-(3-methoxy-4-(oxazol-5-yl)phenyl)ureido)benzylcarbamate] | 
